Assay results taken from patent US11352349B2, “Type II topoisomerase inhibitors and methods of making and using thereof” (Ohio State Innovation Foundation, priority 2017, dated 2022).
In brackets after ≈: the same amount, converted by molar mass. Like-named read-outs stand apart in the source and are kept apart here.

How the values were obtained:
S. aureus ATCC 29213 = assay: MIC by broth microdilution (CLSI), quality control strain S. aureus ATCC 29213; type: cell-based, Staphylococcus aureus; conditions: multiple values when multiple MIC assays were conducted; for MIC: Staphylococcus aureus, ATCC29213, S. aureus ATCC 29213; for MIC 29213: S. aureus ATCC 29213
Experimental: Minimum inhibitory concentrations were determined using the quality control strain S. aureus ATCC 29213 (Table 1) by the broth microdilution method according to guidelines of the Clinical and Laboratory Standards Institute (CLSI) (Cockerill, F. R.; et al., 2012, Methods for dilution antimicrobial susceptibility tests for bacteria that grow aerobically; approved standard-ninth edition. MA07-A9. Clinical and Laboratory Standard Institute, Wayne, Pa.). […] Published quality control ranges for gepotidacin and ciprofloxacin were used to validate each assay. MICs for selected compounds were also determined using a USA 300 strain of MRSA (Hidron, et al., Lancet Infect. Dis. 2009, 9:384-392). Vancomycin was used as an additional control.

human topo II = molecular target: T1, human topo II (Homo sapiens, UniProt P11388); assay: Topoisomerase II (alpha) decatenation assay; type: biochemical; conditions: activity remaining at 100 μM compound; read-out: hTopoll (% activity remaining at 100 μM)
T1 construct: purchased Inspiralis, Norwich, UK
Experimental: (§1) A subset of analogs was used to assess the degree of inhibition of DNA gyrase or TopoIV (Inspiralis, Norwich, UK), both to establish the mechanism of action and to evaluate the relative balance of inhibitory activities (Table 1). A subset of compound was also assayed to determine the degree of inhibition of human topoisomerase II (Inspiralis, Norwich, UK)).
(§2) In all experiments, the activity of the enzymes was determined prior to the testing of the compounds and 1 unit (U) was defined as the amount of enzyme required to just fully supercoil, relax or decatenate the substrate (see explanation of gels). This amount of enzyme was initially used in determination of control inhibitor activity. These experiments were performed in duplicate.
(§3) For all assays the final DMSO concentration was 1%. 10 mM stocks of the compounds were serially diluted into 10% DMSO at 1 mM, 0.5 mM, 0.25 mM, 0.1 mM, 0.05 mM, 0.01 mM, 0.005 mM, 0.001 mM, 0.0005 mM, 0.0001 mM and 0.00005 mM. 3.0 μl of each dilution was added to a 30 μl assay.
(§4) Bands were visualised by ethidium staining for 20 minutes and destaining for 20 minutes. Gels were scanned using documentation equipment (GeneGenius, Syngene, Cambridge, UK) and % inhibition levels (where appropriate) were obtained with gel scanning software. (GeneTools, Syngene, Cambridge, UK)
Topoisomerase II (Alpha) Decatenation Assay
Each reaction was stopped by the addition of 30 μl chloroform/iso-amyl alcohol (26:1) and 30 μl Stop Dye, before being loaded on a 1.0% TAE gel run at 90V for 2 hours.

[1] = molecular target: T2, Staphylococcus aureus gyrase (Staphylococcus aureus, UniProt P0A0K8+P20831); assay: Staphylococcus aureus gyrase supercoiling assay; type: biochemical; conditions: S. aureus DNA gyrase supercoiling; read-out: Gyrase IC50
T2 construct: purchased Inspiralis, Norwich, UK
Experimental: as §1, §2, §3, §4
Staphylococcus aureus gyrase supercoiling
1 U of DNA gyrase was incubated with 0.5 μg of relaxed pBR322 DNA in a 30 μl reaction at 37° C. for 30 minutes under the following conditions: 40 mM HEPES. KOH (pH 7.6), 10 mM magnesium acetate, 10 mM DTT, 2 mM ATP, 500 mM potassium glutamate and 0.05 mg/ml BSA.
Each reaction was stopped by the addition of 30 μl chloroform/iso-amyl alcohol (26:1) and 30 μl Stop Dye (40% sucrose (w/v), 100 mM Tris.HCl (pH 7.5), 10 mM EDTA, 0.5 μg/ml bromophenol blue), before being loaded on a 1.0% TAE gel run at 70V for 2 hours.

[2] = molecular target: T3, Staphylococcus aureus Topo IV (Staphylococcus aureus, UniProt P0C1S7+P0C1U9); assay: Staphylococcus aureus Topo IV decatenation assay; type: biochemical
T3 construct: purchased Inspiralis, Norwich, UK
Experimental: as §1, §2, §3, §4
Staphylococcus aureus Topo IV Decatenation Assay
1 U of Topo IV was incubated with 200 ng kDNA DNA in a 30 μl reaction at 37° C. for 30 minutes under the following conditions: 50 mM Tris.HCl (7.5), 5 mM MgCl2, 5 mM DTT, 1.5 mM ATP, 350 mM potassium glutamate and 0.05 mg/ml BSA.
Each reaction was stopped by the addition of 30 μl chloroform/iso-amyl alcohol (26:1) and 30 μl Stop Dye, before being loaded on a 1.0% TAE gel run at 70V for 2 hours.

USA 300 strain of MRSA = assay: MIC by broth microdilution, USA 300 strain of MRSA; type: cell-based, Staphylococcus aureus; conditions: Staphylococcus aureus, multiple values when multiple MIC assays were conducted, read-out: MIC USA300
Experimental: Minimum inhibitory concentrations were determined using the quality control strain S. aureus ATCC 29213 (Table 1) by the broth microdilution method according to guidelines of the Clinical and Laboratory Standards Institute (CLSI) (Cockerill, F. R.; et al., 2012, Methods for dilution antimicrobial susceptibility tests for bacteria that grow aerobically; approved standard-ninth edition. MA07-A9. Clinical and Laboratory Standard Institute, Wayne, Pa.). […] MICs for selected compounds were also determined using a USA 300 strain of MRSA (Hidron, et al., Lancet Infect. Dis. 2009, 9:384-392). Vancomycin was used as an additional control.

[3] = S. aureus Topo IV decatenation, read-out: TopolV Decat IC50

T1 sequence (P11388 whole entry): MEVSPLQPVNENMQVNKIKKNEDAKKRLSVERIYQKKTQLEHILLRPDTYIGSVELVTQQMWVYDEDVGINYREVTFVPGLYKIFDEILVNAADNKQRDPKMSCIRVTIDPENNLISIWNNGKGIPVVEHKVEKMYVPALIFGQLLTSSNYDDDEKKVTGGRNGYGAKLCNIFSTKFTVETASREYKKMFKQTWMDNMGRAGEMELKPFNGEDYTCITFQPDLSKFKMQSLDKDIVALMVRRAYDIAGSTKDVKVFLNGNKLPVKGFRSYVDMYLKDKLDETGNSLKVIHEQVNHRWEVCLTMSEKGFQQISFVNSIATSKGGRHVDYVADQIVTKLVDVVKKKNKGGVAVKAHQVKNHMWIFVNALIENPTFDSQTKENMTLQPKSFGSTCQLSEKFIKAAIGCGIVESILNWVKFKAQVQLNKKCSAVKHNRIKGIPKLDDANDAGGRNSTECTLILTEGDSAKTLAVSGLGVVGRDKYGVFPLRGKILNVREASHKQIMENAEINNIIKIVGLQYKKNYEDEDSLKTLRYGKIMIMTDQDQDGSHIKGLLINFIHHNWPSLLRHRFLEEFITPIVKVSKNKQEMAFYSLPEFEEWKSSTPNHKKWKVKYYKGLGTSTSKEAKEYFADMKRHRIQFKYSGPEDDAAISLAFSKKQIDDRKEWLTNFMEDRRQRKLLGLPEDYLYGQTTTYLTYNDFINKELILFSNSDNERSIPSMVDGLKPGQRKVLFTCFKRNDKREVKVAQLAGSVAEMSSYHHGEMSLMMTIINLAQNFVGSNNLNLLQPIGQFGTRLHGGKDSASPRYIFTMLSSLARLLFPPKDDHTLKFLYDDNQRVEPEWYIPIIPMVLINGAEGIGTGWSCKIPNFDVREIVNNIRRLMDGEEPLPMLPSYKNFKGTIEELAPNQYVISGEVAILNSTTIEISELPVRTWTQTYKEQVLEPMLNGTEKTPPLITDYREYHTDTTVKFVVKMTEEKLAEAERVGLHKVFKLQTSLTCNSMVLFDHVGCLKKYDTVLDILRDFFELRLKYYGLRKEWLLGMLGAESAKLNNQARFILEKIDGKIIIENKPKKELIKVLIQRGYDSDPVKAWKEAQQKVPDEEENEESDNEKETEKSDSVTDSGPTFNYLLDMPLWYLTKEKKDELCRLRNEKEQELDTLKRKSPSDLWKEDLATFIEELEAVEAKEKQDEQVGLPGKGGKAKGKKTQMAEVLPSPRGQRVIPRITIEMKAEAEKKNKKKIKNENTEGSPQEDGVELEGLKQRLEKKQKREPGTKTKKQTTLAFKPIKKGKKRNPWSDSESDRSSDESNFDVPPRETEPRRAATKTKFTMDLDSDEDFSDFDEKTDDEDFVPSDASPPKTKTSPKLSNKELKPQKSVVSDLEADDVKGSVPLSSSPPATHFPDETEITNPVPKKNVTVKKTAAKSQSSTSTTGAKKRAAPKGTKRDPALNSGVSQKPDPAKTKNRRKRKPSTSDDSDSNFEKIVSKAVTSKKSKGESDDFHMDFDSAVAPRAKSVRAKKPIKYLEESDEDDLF

| Compound | MIC (S. aureus ATCC 29213) [µg/mL] | MIC (USA 300 strain of MRSA) [µg/mL] | remaining activity at 100 µM (human topo II) [%] | IC50 [1] [µM] | IC50 [2, 3] [µM] | MIC 29213 (S. aureus ATCC 29213) [µg/mL] | IC50 [2] [µM] |
| --- | --- | --- | --- | --- | --- | --- | --- |
| COc1ccc2ncc(=O)n(CC[C@H]3OC[C@H](NCc4ccc5c(c4)OCCO5)CO3)c2c1 [AB-0002, 1-(2-(5-(((2,3-dihydrobenzo[b][1,4]dioxin-6-yl)methyl)amino)-1,3-trans-dioxan-2-yl)ethyl)-7-methoxyquinoxalin-2(1H)-one] | 4 (≈ 8.82 µM) | – | 97.5 | 2.01 | > 100 | – | – |
| COc1ccc2nccc(CC[C@H]3OC[C@H](NCc4ccc5c(c4)OCCO5)CO3)c2c1 [AB-0011, N-((2,3-dihydrobenzo[b][1,4]dioxin-6-yl)methyl)-2-(2-(6-methoxyquinolin-4-yl)ethyl)-trans-1,3-dioxan-5-amine] | – | 0.5 (≈ 1.15 µM) | 84.2 | 0.1 | – | – | 13.8 |
| COc1ccc2nccc(CC[C@H]3OC[C@H](NCc4ccc(Cl)c(Cl)c4)CO3)c2c1 [AB-0012, N-(3,4-dichlorobenzyl)-2-(2-(6-methoxyquinolin-4-yl)ethyl)-trans-1,3-dioxan-5-amine] | – | 0.5 (≈ 1.12 µM) | 93.2 | 0.28 | > 100 | – | – |
| COc1ccc2nccc(CC[C@H]3OC[C@H](NCc4cc5c(cn4)OCCO5)CO3)c2c1 [AB-0013, N-((2,3-dihydro-[1,4]dioxino[2,3-c]pyridin-7-yl)methyl)-2-(2-(6-methoxyquinolin-4-yl)ethyl)-trans-1,3-dioxan-5-amine] | 1 (≈ 2.29 µM) | 2 (≈ 4.57 µM) | 95.1 | 0.36 | 50 | 2 (≈ 4.57 µM) | – |
| COc1ccc2nccc(CC[C@H]3OC[C@H](NCc4cc5c(cn4)OCCC5)CO3)c2c1 [AB-0014, N-((3,4-dihydro-2H-pyrano[2,3-c]pyridin-6-yl)methyl)-2-(2-(6-methoxyquinolin-4-yl)ethyl)-trans-1,3-dioxan-5-amine] | 1 (≈ 2.3 µM) | 2 (≈ 4.59 µM) | 93.8 | 0.33 | 25 to 50 | – | – |
| COc1ccc2nccc(CC[C@H]3OC[C@H](NCc4ccc(F)c(Cl)c4)CO3)c2c1 [AB-0023, N-(3-chloro-4-fluorobenzyl)-2-(2-(6-methoxyquinolin-4-yl)ethyl)-trans-1,3-dioxan-5-amine] | 8 (≈ 18.6 µM) | – | 97.7 | 2.1 | > 100 | – | – |
| COc1ccc(CN[C@H]2CO[C@H](CCc3ccnc4ccc(OC)cc34)OC2)cc1 [AB-0031, N-(4-methoxybenzyl)-2-(2-(6-methoxyquinolin-4-yl)ethyl)-trans-1,3-dioxan-5-amine] | 4 (≈ 9.79 µM) | – | 98.7 | 1.53 | > 100 | – | – |
| COc1ccc2ncc(F)c(C(O)C[C@H]3OC[C@H](NCc4cc5c(cn4)OCCO5)CO3)c2c1 (stereo partly shown) [AB-0046] | 0.5 (≈ 1.06 µM) | 1 (≈ 2.12 µM) | 88.3 | 0.6 | – | – | – |
| COc1ccc2nccc(CC[C@H]3OC[C@H](NCc4ccc(C#N)cc4)CO3)c2c1 [AB-0047, 4-(((2-(2-(6-methoxyquinolin-4-yl)ethyl)-trans-1,3-dioxan-5-yl)amino)methyl)benzonitrile] | > 64 | – | 88.4 | 13.3 | > 100 | – | – |

Further lines, with some results ahead:

| MIC (S. aureus ATCC 29213) [µg/mL] | MIC (USA 300 strain of MRSA) [µg/mL] | Compound | remaining activity at 100 µM (human topo II) [%] | IC50 [1] [µM] | IC50 [2, 3] [µM] | MIC 29213 (S. aureus ATCC 29213) [µg/mL] | IC50 [2] [µM] |
| --- | --- | --- | --- | --- | --- | --- | --- |
| 1 (≈ 2.3 µM) | 1 (≈ 2.3 µM) | COc1ccc2nccc(/C=C/[C@H]3OC[C@H](NCc4ccc5c(c4)OCCO5)CO3)c2c1 [AB-0010, N-((2,3-dihydrobenzo[b][1,4]dioxin-6-yl)methyl)-2-((E)-2-(6-methoxyquinolin-4-yl)vinyl)-trans-1,3-dioxan-5-amine] | – | – | – | 2 (≈ 4.6 µM) | – |
| 0.25 (≈ 0.536 µM) | 0.125 (≈ 0.268 µM) | COc1ccc2ncc(F)c(CC[C@H]3OC[C@H](NCc4ccc(Cl)c(Cl)c4)CO3)c2n1 [AB-0017, N-(3,4-dichlorobenzyl)-2-(2-(3-fluoro-6-methoxy-1,5-naphthyridin-4-yl)ethyl)-trans-1,3-dioxan-5-amine] | – | – | – | – | – |
| ≤ 0.25 | 0.5 (≈ 1.04 µM) | COc1ccc2ncc(F)c(C(O)C[C@H]3OC[C@H](NCc4ccc(Cl)c(Cl)c4)CO3)c2c1 (stereo partly drawn) [AB-0019, 2-(5-((3,4-dichlorobenzyl)amino)-trans-1,3-dioxan-2-yl)-1-(3-fluoro-6-methoxyquinolin-4-yl)ethan-1-ol] | – | – | – | – | – |
| 1 (≈ 2.55 µM) | 1 (≈ 2.55 µM) | COc1ccc2nccc(CC[C@H]3OC[C@H](NCc4ccc(C)cc4)CO3)c2c1 [AB-0044] | – | – | – | – | – |
| 1 (≈ 2.24 µM) | 2 (≈ 4.48 µM) | COc1ccc2nccc(CC[C@H]3OC[C@H](NCc4ccc(C(F)(F)F)cc4)CO3)c2c1 [AB-0071, 2-(2-(6-methoxyquinolin-4-yl)ethyl)-N-(4-(trifluoromethyl)benzyl)-trans-1,3-dioxan-5-amine] | – | – | – | – | – |
| 1 (≈ 2.13 µM) | 2 (≈ 4.25 µM) | COc1ccc2ncc(=O)n(CC(O)[C@H]3OC[C@H](NCc4cc5c(cn4)OCCO5)CO3)c2c1 (stereo partly drawn) [AB-0077, 1-(2-(5-(((2,3-dihydro-[1,4]dioxino[2,3-c]pyridin-7-yl)methyl)amino)-trans-1,3-dioxan-2-yl)-2-hydroxyethyl)-7-methoxyquinoxalin-2(1H)-one] | – | – | – | – | – |
| 2 (≈ 4.73 µM) | 4 (≈ 9.47 µM) | COc1ccc2nccc(CC[C@H]3OC[C@H](NCc4ccc5c(c4)OCO5)CO3)c2c1 [AB-0079, N-(benzo[d][1,3]dioxol-5-ylmethyl)-2-(2-(6-methoxyquinolin-4-yl)ethyl)-trans-1,3-dioxan-5-amine] | – | – | – | – | – |
| 1 (≈ 2.18 µM) | 2 (≈ 4.36 µM) | COc1ccc2nccc(CC[C@H]3OC[C@H](NCc4ccc5c(c4)OC(F)(F)O5)CO3)c2c1 [AB-0080, N-((2,2-difluorobenzo[d][1,3]dioxol-5-yl)methyl)-2-(2-(6-methoxyquinolin-4-yl)ethyl)-trans-1,3-dioxan-5-amine] | – | – | – | – | – |
| 2 (≈ 4.32 µM) | 4 (≈ 8.65 µM) | COc1ccc2nccc(CC[C@H]3OC[C@H](NCc4ccc(OC(F)(F)F)cc4)CO3)c2c1 [AB-0081, 2-(2-(6-methoxyquinolin-4-yl)ethyl)-N-(4-(trifluoromethoxy)benzyl)-trans-1,3-dioxan-5-amine] | – | – | – | – | – |
| 2 (≈ 4.6 µM) | 4 (≈ 9.2 µM) | COc1ccc2nccc(CC[C@H]3OC[C@H](NCc4ccc(C(C)(C)C)cc4)CO3)c2c1 [AB-0082, N-(4-(tert-butyl)benzyl)-2-(2-(6-methoxyquinolin-4-yl)ethyl)-trans-1,3-dioxan-5-amine] | – | – | – | – | – |
| 0.5 (≈ 1.06 µM) | 1 (≈ 2.12 µM) | COc1ccc2ncc(F)c(C(O)C[C@H]3OC[C@H](NCc4cc5c(cn4)OCCO5)CO3)c2n1 (stereo partly drawn) [AB-0083, 2-(5-(((2,3-dihydro-[1,4]dioxino[2,3-c]pyridin-7-yl)methyl)amino)-trans-1,3-dioxan-2-yl)-1-(3-fluoro-6-methoxy-1,5-naphthyridin-4-yl)ethanol] | – | – | – | – | – |
| 2 (≈ 4.67 µM) | 4 (≈ 9.34 µM) | COc1ccc2nccc(CC[C@H]3OC[C@H](NCc4ccc(C(F)F)cc4)CO3)c2c1 [AB-0085, N-(4-(difluoromethyl)benzyl)-2-(2-(6-methoxyquinolin-4-yl)ethyl)-trans-1,3-dioxan-5-amine] | – | – | – | – | – |
